Where only a bound is given, the exact number is not on record here.

Data set [1] deals with neural crest cells (NCC). Put plainly: Transwell migration assay (FBS chemoattractant, 6 h). It counts as cell-based, human. The following applies: glucose or galactose medium. The protocol:
Cells were seeded at a density of 50,000 cells/well (150,000 cells/cm^2) into the upper chamber (insert) of the 96-well transwell plates (pore size 8 μm, polycarbonate membrane, Corning, Glendale, AZ, USA). The cells were stimulated to migrate through the membrane by medium supplemented with 5% of the chemoattractant fetal bovine serum (FBS) (PAA Laboratories, Pasching, Austria) in the lower chamber (reservoir). For testing of migration inhibition upon compound treatment, compounds were used at a concentration of BMC10 (V) of prior cMINC testing. Three technical replicates per condition were used. As a control for “unstimulated” migration, medium without any chemoattractant was tested. As an endpoint specific control for “inhibited” migration, CytoD with a concentration of 200 nM was used. After 6 h incubation time, the medium was aspirated, and reservoirs were washed with DPBS. Afterwards, reservoirs were filled with EDTA dissociation solution (DPBS supplemented with 0.1% 0.5 M EDTA UltraPure pH 8.0 (Thermo Fisher Scientific, Waltham, MA, USA), and 0.18% NaCl) containing 0.25 μL/mL calcein-AM and incubated for 30 min at 37 °C. The plates were then centrifuged at 300× g for 5 min (1200 rpm, Heraeus Multifuge 1 S-R, ThermoScientific) to remove migrated cells from the membrane. The tray with 96 wells of permeable inserts was removed, and the receiver plate was measured in the spectrophotometer (TECAN, Männedorf, Switzerland) with an emission wavelength of 520 nm. After subtraction of the blank values, the number of migrated cells was normalized to that of cells stimulated with FBS.
To perform the experiments under mitochondria-dependent conditions, the cells were handled exactly in the same way, but the medium was adapted. The N2-S medium was adjusted, so that no glucose was present but galactose. The medium consisted of SILAC^TM Advanced DMEM/-F12 FLEX (Gibco/Fisher Scientific, Hampton, NH, USA), 15 μg/mL insulin, 400 μM GlutaMAX, 0.7 mM L-Arginine, 0.5 mM L-Lysine, 21.5 µM Phenol Red, 20 nM progesterone, 100 μM putrescine and 30 nM selenium, 92.5 μg/mL apotransferrin, 4.7 mg/mL galactose (18 mM). The cytokines 20 ng/mL EGF and 20 ng/mL FGF2 were always freshly added to each run.

For data set [2] the following is noted: cited from earlier work.
For data set [3], the system named is neural crest cells (NCC). In words: Intracellular ATP measurement (CellTiterGlo). It counts as cell-based, human. Particulars: after 60 min, at BMC10 (V) of cMINC. The protocol:
Cells were seeded at a density of 20,000 cells/well. The NCCs were treated with the BMC10 (V) of the cMINC screen for one hour, six hours or 24 h. Then, a CellTiterGlo-Triton mix was prepared. Therefore, a 0.5% Triton solution in PBS was prepared, and the commercial reagent mix CellTiterGlo 2.0 (Promgea, Madison, WI, USA) was added in a 1:1 ratio. An amount of 50 µL/well of the mix was added to 100 µL of medium. The plate was shaken for two minutes, and 100 µL of the cell mixture was transferred to a white measurement plate. For the blank value, only medium with the mix was measured. Luminescence data of samples were normalized to DMSO solvent controls, and the ATP data are given in % relative to “untreated cells”.

The conditions of data set [4]: cited from earlier work. This is another data set of the same source.
On the set-up of data set [5]: species or system human. The protocol:
Figure 8 Consideration of biokinetics for refined hazard (potency) estimates. (A) Concentration–response curve of the oxygen consumption rate (OCR) in NCCs cultured in galactose medium after a 24 h treatment with picoxystrobin. The highest tested concentration was 2.8 µM (highest non-cytotoxic exposure). Data are shown for two independent experiments (as in Figure 7B). (B) The cMINC assay was performed as in Figure 1, but the NCCs were cultured in galactose medium. The insert box gives picoxystrobin potency data for migration (M) and cytotoxicity (V), and their ratio. Data are expressed as means ± SEM from seven independent experiments. (C) Schematic illustration of the distribution of picoxystrobin in a cell culture well according to the in silico biokinetics prediction model. Data for each compartment are given either as percentage (left) or as concentrations (right) for a nominal concentration of 1 µM. (D) Tabular overview of the distribution of picoxystrobin in the different compartments at a nominal concentration of 1 µM. Mediumt: total medium; Mediumb: bound in medium; Mediumu: unbound in medium; Cellst: total amount in cells; CellsM: mitochondrial compartment; CellsL: lysosomal compartment; CellsR: “rest” of the cells. […] (E) Synoptic overview of predicted and measured concentrations of picoxystrobin. […]

For the compound `CO/C=C(/C(=O)OC)c1ccccc1COc1cccc(C(F)(F)F)n1` [Picoxystrobin, picoxystrobin], the “concentration at which transwell migration was inhibited” value in the data set with neural crest cells (NCC) [1] is ≥ 5 µM. In data set [2], the “blood to plasma ratio” value is recorded as 0.71 and the “fraction unbound in blood plasma” value is 0.0127. Further, in the data set with neural crest cells (NCC) [3], the ATP levels result is on record as “did not decrease”. In addition, the “Henry's law constant” value in data set [4] (at 25 °C, VIVD model input) is listed as 6 × 10^−4 Pa*m^3*mol⁻^1. In data set [4] (model input), the charge characterization entry is “neutral”. Moreover, in data set [5], the “MoE for fetus (nominal data)” value is recorded as 2-100 fold.

These data come from PMC11674305, “Inhibition of Neural Crest Cell Migration by Strobilurin Fungicides and Other Mitochondrial Toxicants” (Cells, 2024).
